Assay results taken from patent US20040162263A1, “Pharmaceutical formulations targeting specific regions of the gastrointesinal tract” (priority 2002, published 2004).
In brackets after ≈: the same amount, converted by molar mass. Several values for one entry are separate records, joined by “and”; a condition that tells them apart may be missing. Equal values may be shown once.

Tests used:
[1] = Physico-chemical properties of decitabine (solubility, stability); type: physicochemical
[2] = Pharmacokinetics of decitabine in IVAP rabbit model; type: in vivo, rabbits
Experimental: Decitabine was administered intravenously to IVAP rabbits (n=3) at three doses: 0.75, 1.5 and 2.5 mg/kg. It was also administered at 2.5mg/kg orally and through previously implanted intestinal and vascular access ports in the portal vein (PV), upper small intestine (USI), lower small intestine (LSI) and colon (IC). All routes received the same simple formulation of raw compound dissolved in cold saline. Care was taken to insure doses were delivered immediately (less than 15 minutes) after dissolving the powder and that the liquid formulation was kept on ice up to the time of administration. Blood samples were taken simultaneously from the median auricular artery and through a port in the portal vein at predetermined time points. Plasma was separated and kept frozen at −70° C. until shipped to Xenobiotic Laboratories for analysis.
Pharmacokinetic parameters were calculated using non-compartmental models with the Winnonlin v3.1 program.

[3] = IC 2.5 mg/kg, only two successful doses, individual values
[4] = IV 0.75 mg/kg, 2 min, 0.75 mg/kg
[5] = IV 0.75 mg/kg, 15 min, 0.75 mg/kg
[6] = IV 0.75 mg/kg, 60 min, 0.75 mg/kg
[7] = IV 0.75 mg/kg, 120 min, 0.75 mg/kg
[8] = IV 0.75 mg/kg, 240 min, 0.75 mg/kg
[9] = IV 1.5 mg/kg, 15 min, 1.5 mg/kg
[10] = IV 1.5 mg/kg, 60 min, 1.5 mg/kg
[11] = IV 1.5 mg/kg, 120 min, 1.5 mg/kg
[12] = IV 1.5 mg/kg, 180 min, 1.5 mg/kg

moisture at equilibrium of monohydrate formed on exposure to humidity [1]: 7% | solubility in alcohol [1]: highly soluble | solid remains stable ([1]; 15-30° C., not exposed to humidity): 36 months | degradation rate in aqueous environment ([1]; pH 7 and 2-8° C.): about 0.7 %/hr | degradation rate in aqueous environment ([1]; pH 7 and 25° C.): 2.5 %/hr | solubility ([1]; water): ~25 mg/mL (≈ 110 mM) | hepatic first pass effect loss ((AUCIV−AUCPV/AUCIV)×100) ([2]; 2.5 mg/kg into portal vein): 32% | Individual systemic Bioavailability ([2]; IC 2.5 mg/kg): 68.29% and 0.22% | AUC0-inf in Portal Vein [2, 3]: 2.98 ng·h/mL and 830 ng·h/mL | AUC0-inf in Systemic Samples [2, 3]: 2.51 ng·h/mL and 773 ng·h/mL | CMAX ([2]; IC 2.5 mg/kg, two individual values): 2.0 ng/mL and 611 ng/mL | concentration PV, Mean ([2]; IV 0.75 mg/kg, 2 min): 624 ng/mL | concentration SYS, Mean ([2]; IV 0.75 mg/kg, 2 min): 628 ng/mL | concentration PV, individual [2, 4]: 581 ng/mL and 621 ng/mL and 669 ng/mL | concentration SYS, individual [2, 4]: 666 ng/mL and 615 ng/mL and 603 ng/mL | concentration SYS, Mean ([2]; IV 0.75 mg/kg, 5 min): 422 ng/mL | concentration SYS, individual ([2]; IV 0.75 mg/kg, 5 min, 0.75 mg/kg): 432 ng/mL and 415 ng/mL and 419 ng/mL | concentration PV, Mean ([2]; IV 0.75 mg/kg, 15 min): 229 ng/mL | concentration SYS, Mean ([2]; IV 0.75 mg/kg, 15 min): 247 ng/mL | concentration PV, individual [2, 5]: 233 ng/mL (2×) and 220 ng/mL | concentration SYS, individual [2, 5]: 257 ng/mL and 233 ng/mL and 250 ng/mL | concentration SYS, Mean ([2]; IV 0.75 mg/kg, 30 min): 177 ng/mL | concentration SYS, individual ([2]; IV 0.75 mg/kg, 30 min): 177 ng/mL | concentration PV, Mean ([2]; IV 0.75 mg/kg, 60 min): 83 ng/mL | concentration SYS, Mean ([2]; IV 0.75 mg/kg, 60 min): 98 ng/mL | concentration PV, individual [2, 6]: 95.1 ng/mL and 65.8 ng/mL and 89.1 ng/mL | concentration SYS, individual [2, 6]: 102 ng/mL (2×) and 89.1 ng/mL | concentration PV, Mean ([2]; IV 0.75 mg/kg, 120 min): 28 ng/mL | concentration SYS, Mean ([2]; IV 0.75 mg/kg, 120 min): 39 ng/mL | concentration PV, individual [2, 7]: 21.1 ng/mL and 34 ng/mL | concentration SYS, individual [2, 7]: 40.6 ng/mL and 35.2 ng/mL and 41 ng/mL | concentration PV, Mean ([2]; IV 0.75 mg/kg, 180 min): 14 ng/mL | concentration PV, individual ([2]; IV 0.75 mg/kg, 180 min): 13.9 ng/mL | concentration SYS, Mean ([2]; IV 0.75 mg/kg, 180 min): 15 ng/mL | concentration SYS, individual ([2]; IV 0.75 mg/kg, 180 min, 0.75 mg/kg): 15 ng/mL and 13.9 ng/mL and 15.7 ng/mL | concentration PV, Mean ([2]; IV 0.75 mg/kg, 240 min): 5 ng/mL | concentration SYS, Mean ([2]; IV 0.75 mg/kg, 240 min): 6 ng/mL | concentration PV, individual [2, 8]: 4.87 ng/mL and 5.76 ng/mL | concentration SYS, individual [2, 8]: 5.9 ng/mL and 6.21 ng/mL and 6.31 ng/mL | concentration PV, Mean ([2]; IV 1.5 mg/kg, 2 min): 1140 ng/mL | concentration SYS, Mean ([2]; IV 1.5 mg/kg, 2 min): 1080 ng/mL | concentration PV, individual ([2]; IV 1.5 mg/kg, 2 min, 1.5 mg/kg): 1300 ng/mL and 1130 ng/mL and 985 ng/mL | concentration SYS, individual ([2]; IV 1.5 mg/kg, 2 min, 1.5 mg/kg): 1240 ng/mL and 919 ng/mL | concentration PV, Mean ([2]; IV 1.5 mg/kg, 5 min): 652 ng/mL | concentration PV, individual ([2]; IV 1.5 mg/kg, 5 min): 652 ng/mL | concentration SYS, Mean ([2]; IV 1.5 mg/kg, 5 min): 735 ng/mL | concentration SYS, individual ([2]; IV 1.5 mg/kg, 5 min, 1.5 mg/kg): 819 ng/mL and 676 ng/mL and 711 ng/mL | concentration PV, Mean ([2]; IV 1.5 mg/kg, 15 min): 350 ng/mL | concentration SYS, Mean ([2]; IV 1.5 mg/kg, 15 min): 433 ng/mL | concentration PV, individual [2, 9]: 352 ng/mL and 301 ng/mL and 397 ng/mL | concentration SYS, individual [2, 9]: 443 ng/mL and 404 ng/mL and 453 ng/mL | concentration PV, Mean ([2]; IV 1.5 mg/kg, 30 min): 266 ng/mL | concentration PV, individual ([2]; IV 1.5 mg/kg, 30 min): 266 ng/mL | concentration SYS, Mean ([2]; IV 1.5 mg/kg, 30 min): 330 ng/mL | concentration SYS, individual ([2]; IV 1.5 mg/kg, 30 min, 1.5 mg/kg): 355 ng/mL and 304 ng/mL | concentration PV, Mean ([2]; IV 1.5 mg/kg, 60 min): 128 ng/mL | concentration SYS, Mean ([2]; IV 1.5 mg/kg, 60 min): 156 ng/mL | concentration PV, individual [2, 10]: 124 ng/mL and 119 ng/mL and 141 ng/mL | concentration SYS, individual [2, 10]: 149 ng/mL and 148 ng/mL and 171 ng/mL | concentration PV, Mean ([2]; IV 1.5 mg/kg, 120 min): 59 ng/mL | concentration SYS, Mean ([2]; IV 1.5 mg/kg, 120 min): 63 ng/mL | concentration PV, individual [2, 11]: 60 ng/mL and 57.2 ng/mL and 58.8 ng/mL | concentration SYS, individual [2, 11]: 62.6 ng/mL and 64.9 ng/mL and 60.3 ng/mL | concentration PV, Mean ([2]; IV 1.5 mg/kg, 180 min): 22 ng/mL | concentration SYS, Mean ([2]; IV 1.5 mg/kg, 180 min): 24 ng/mL | concentration PV, individual [2, 12]: 22.1 ng/mL and 21.1 ng/mL | concentration SYS, individual [2, 12]: 23.7 ng/mL and 25.3 ng/mL and 23 ng/mL
SMILES: Nc1ncn([C@H]2C[C@H](O)[C@@H](CO)O2)c(=O)n1 [decitabine, 5-aza-2′-deoxycytidine]
IV AUC0-inf, individual ([2]; IV 0.75 mg/kg, 0.75 mg/kg): 327.37 ng·h/mL and 353.53 ng·h/mL and 354.68 ng·h/mL
